Data from patent US7078403B1, “Antiviral agents” (Biota Scientific Management Pty Ltd., priority 1999, dated 2006).
Values after ≈ are worked out from the molar mass of the structure shown. Read-outs that look alike come from different tables or passages of the source.

Assays:
Enterovirus 70 = assay: Activity on Enterovirus 70 in mammalian cell culture assay; format: cell-based; conditions: Enterovirus D
in vitro [1] = assay: in vitro
in vitro [2] = assay: in vitro; remark: listed apart in the source
Coxsackie A21 = assay: Activity on Coxsackie A21 in mammalian cell culture assay; format: cell-based
in vitro [3] = conditions: human
HRV type 2 = assay: Inhibition of viral cytopathic effect (CPE), visual scoring or neutral red, HRV type 2 in KB cells; format: cell-based, human rhinovirus; conditions: for EC50: Enterovirus, read-out: Activity on Rhinovirus Type 2 EC50; for EC50 / Activity on Rhinovirus Type 2 EC50: HRV type 2 in KB cells, CPE inhibition; for Activity on Rhinovirus Type 2 SI: selectivity index = CC50 or MTC divided by EC50, HRV type 2, KB cells
[4] = system: Enterovirus strains Poliovirus 2, Echoviruses 2, 3, 9, 21 and 30 and Coxsackie B3; format: cell-based; conditions: all Enterovirus strains tested
[5] = system: Human Rhinovirus strains 1B, 3, 4, 5, 6, 8, 9, 11, 12, 13, 16, 17, 21, 25, 30, 32, 33, 38, 39, 40, 42, 43, 45, 48, 52, 54, 56, 57, 59, 60, 63, 67, 68, 69, 72 …; assay: Standard CPE reduction assay against a panel of Human Rhinovirus strains; format: cell-based
Rhinovirus Type 14 = format: cell-based, human rhinovirus; conditions: for EC50: Enterovirus
HRV type 1A = assay: Inhibition of viral cytopathic effect (CPE), visual scoring or neutral red, HRV type 1A in MRC-5 cells; format: cell-based, human rhinovirus; conditions: for Activity on Rhinovirus Type 1A EC50: HRV type 1A in MRC-5 cells; for Activity on Rhinovirus Type 1A EC50 / EC50: CPE inhibition; for Activity on Rhinovirus Type 1A SI: selectivity index = CC50 or MTC divided by EC50, HRV type 1A, MRC-5 cells; for EC50: Enterovirus, MRC5, HRV type 1A in MRC-5 cells, read-out: Activity on Rhinovirus Type 1A EC50
[6] = system: human embryo lung (MRC-5) cells; assay: Cytotoxicity (CC50 or MTC) in uninfected MRC-5 cells; conditions: unit not given
[7] = system: human embryo lung (MRC-5) cells
in vitro [8] = conditions: mammalian cell culture (cell line not stated)
HRV-2 = assay: Time of addition study, CPE inhibition of HRV-2 in KB cells; format: cell-based, human rhinovirus; conditions: Rhinovirus A, read-out: EC50 (visual assay)
[9] = HRV14, HRV-14, read-out: Activity on Rhinovirus Type 14 EC50
[10] = mammalian cell culture (cell line not stated)

Compound	Activity on Rhinovirus Type 2 SI (HRV type 2)	Activity on Rhinovirus Type 14 EC50 (Rhinovirus Type 14; HRV-14) [µg/mL]	Activity on Rhinovirus Type 1A EC50 (HRV type 1A) [µg/mL]	Activity on Rhinovirus Type 1A SI (HRV type 1A)	Activity on Rhinovirus Type 1A MTC [6]	Activity on Rhinovirus Type 2 EC50 (HRV type 2) [µg/mL]	also measured
CCO/N=C/c1ccc(OCCC2CCN(c3ccc(Cl)nn3)CC2)cc1 [Compound 1, 4-{2-[1-(6-Chloro-3-pyridazinyl)4-piperidinyl]ethoxy}benzaldehyde O-ethyloxime]	>1000	–	–	–	–	–	EC50 (Enterovirus 70): 0.03 µg/mL (≈ 0.0771 µM); CC50 (in vitro [1]): > 50 µg/mL; CC50 (in vitro [2]): > 50 µg/mL; EC50 (Coxsackie A21): < 0.000156 µg/mL; CC50 (in vitro [3]): > 1 µg/mL; EC50 (HRV type 2): < 0.001 µg/mL; Inhibitory activity compared with Pirodavir [4]: superior activity to Pirodavir; Inhibitory activity compared with Pirodavir ([5]; nearly all HRV strains tested): superior activity to Pirodavir
CCON=Cc1ccc(OCCC2CCN(c3ccc(Cl)nn3)CC2)c(OC)c1 [Compound 5]	>111	0.0077	<0.0032	>312	>1	0.009	–
CON=Cc1ccc(OCCC2CCN(c3ccc(C)nn3)CC2)cc1 [Compound 7]	>7	0.0068	<0.0032	>312	>1	0.15	–
CON=Cc1ccc(OCCC2CCN(c3ccc(Cl)nn3)CC2)cc1 [Compound 8]	>33	0.0072	<0.0032	>312	>1	0.03	–
CCCON=Cc1ccc(OCCC2CCN(c3ccc(Cl)nn3)CC2)cc1 [Compound 11]	>250	0.0077	<0.0032	>312	>1	0.004	–
C=CCON=Cc1ccc(OCCC2CCN(c3ccc(Cl)nn3)CC2)cc1 [Compound 13]	83	0.0078	<0.0032	>312	>1	0.006	–
CCON=Cc1cc(C)c(OCCCc2cc(C)no2)c(C)c1 [Compound 24]	>500	–	<0.16	>320	>50	<0.05	Inhibitory activity compared with Pleconaril ([5]; HRV strains panel): superior activity to Pleconaril
CON=Cc1ccc(OCCC2CCN(c3ccc(Cl)nn3)CC2)c(OC)c1 [Compound 33]	>25	0.0138	0.014	>72.4	>1	0.04	–
CCON=Cc1ccc(OCCC2CCN(c3ccc(Cl)nn3)CC2)c(C)c1 [Compound 42]	>167	0.0111	0.006	>177.8	>1	0.006	–
CON=Cc1ccc(OCCC2CCN(c3ccc(Cl)nn3)CC2)c(C)c1 [Compound 44]	>38	0.0194	<0.003	>312	>1	0.026	–
CCON=Cc1ccc(OCCC2CCN(c3ccc(C)nn3)CC2)c(C)c1 [Compound 51]	–	0.0093	<0.003	>207.3	0.663	–	–
CON=Cc1ccc(OCCC2CCN(c3ccc(C)nn3)CC2)c(C)c1 [Compound 52]	–	0.0054	<0.003	>312	>1	–	–
CCO/N=C/c1cc(C)c(OCCCc2cc(-c3ccccc3)no2)c(C)c1 [Compound 127, 3,5-Dimethyl-[4-{3-(3-Phenyl-5-isoxazolyl)propoxy)]benzaldehyde O-ethyloxime]	–	–	–	>3	–	–	EC50 (HRV type 1A): 0.329 µg/mL (≈ 0.869 µM); Activity on Rhinovirus Type 1A MTC [7]: >1
CCON=Cc1ccc(OCCC2CCN(c3ccc(C=O)nn3)CC2)cc1 [Compound 128, 4-(2-[1-(6-Formyl-3-pyridazinyl)-4-piperidinyl]ethoxy)benzaldehyde O-ethyloxime]	–	–	–	>15	–	–	EC50 (HRV type 1A): 0.063 µg/mL (≈ 0.165 µM); Activity on Rhinovirus Type 1A MTC [7]: >1
CCON=Cc1ccc(OCCC2CCN(c3ccc(C)nn3)CC2)c(O)c1 [Compound 146]	–	0.0084	0.051	>19	>1	–	–
CCO/N=C/c1csc(OCCC2CCN(c3ccc(C)nn3)CC2)n1 [Compound 155, 2-(1-(6 methyl-3-pyridazinyl)-4-piperidinylethoxy)-thiazole-4-carboxaldehyde O-ethyl oxime]	–	–	–	–	–	–	EC50 (Rhinovirus Type 14; [9]): 0.0138 µg/mL (≈ 0.0368 µM); CC50 (in vitro [8]): > 0.5 µg/mL
CCO/N=C/c1ccc(OCCC2CCN(c3nnc(C)s3)CC2)cc1 [Compound 158]	–	–	–	–	–	–	EC50 (Rhinovirus Type 14; [9]): 0.00095 µg/mL (≈ 0.00254 µM); CC50 (in vitro [8]): > 0.5 µg/mL
CCO/N=C/c1ccc(OCCCCCN(C)c2ccc(Cl)nn2)cc1 [Compound 161]	–	–	–	–	–	–	EC50 (Rhinovirus Type 14; [9]): 0.0348 µg/mL (≈ 0.0923 µM); CC50 (in vitro [8]): > 0.5 µg/mL
CO/N=C/c1ccc(OCCC2CCN(c3nc(OC)nc(OC)n3)CC2)cc1 [Compound 202]	–	0.0593	–	–	–	–	–
CCO/N=C/c1ccc(OCCC2CCN(c3nc(OC)nc(OC)n3)CC2)cc1 [Compound 203]	–	0.060	–	–	–	–	–
CCc1cnc(N2CCC(CCOc3ccc(/C=N/OC)cc3)CC2)nc1 [Compound 204]	–	0.0554	–	–	–	–	–
CCO/N=C/c1ccc(OCCC2CCN(c3ncc(CC)cn3)CC2)cc1 [Compound 205]	–	0.0638	–	–	–	–	–
CO/N=C/c1ccc(OCCC2CCN(c3nc4ccccc4s3)CC2)cc1 [Compound 206]	–	0.0233	–	–	–	–	–
CCO/N=C/c1ccc(OCCCCCOc2ccc(Cl)nn2)cc1 [Compound 209]	–	0.0157	–	–	–	–	–
CCO/N=C/c1ccc(OCCC2CCN(c3cc(C)c(Cl)nn3)CC2)cc1 [Compound 212]	–	0.0107	–	–	–	–	–
CC(C)S(=O)(=O)n1c(N)nc2ccc(/C(=N/O)c3ccccc3)cc21 [Enviroxime]	–	–	–	75.91	–	–	EC50 (Enterovirus 70): 0.21 µg/mL (≈ 0.586 µM); EC50 (Coxsackie A21): 0.39 µg/mL (≈ 1.09 µM); EC50 (HRV type 1A): 0.006 µg/mL (≈ 0.0167 µM); Activity on Rhinovirus Type 1A MTC [7]: 0.49
CCOC(=O)c1ccc(OCCC2CCN(c3ccc(C)nn3)CC2)cc1 [Pirodavir, ethyl 4-[2-[1-(6-methyl-3-pyridazinyl)-4-piperidinyl]-ethoxy]benzoate]	>300	–	–	555.74	–	–	EC50 (HRV-2; HRV2, time of addition 0 hr): 0.004 µg/mL (≈ 0.0108 µM); EC50 (HRV-2; HRV2, time of addition 1 hr post-virus): 0.1 µg/mL (≈ 0.271 µM); EC50 (HRV-2; HRV2, time of addition 2 hr post-virus): > 0.1 µg/mL; EC50 (HRV-2; HRV2, time of addition 4 hr post-virus): > 0.1 µg/mL; EC50 (HRV-2; HRV2, time of addition 6 hr post-virus): > 0.1 µg/mL; EC50 (HRV-2; HRV2, time of addition 8 hr post-virus): > 0.1 µg/mL; EC50 (HRV-2; HRV2, time of addition 24 hr post-virus): > 0.1 µg/mL; EC50 (HRV-2; HRV2, time of addition −1 hr (pre-treatment)): 0.023 µg/mL (≈ 0.0623 µM); CC50 (in vitro [3]): > 1 µg/mL; EC50 (HRV type 1A): 0.02 µg/mL (≈ 0.0541 µM); EC50 (HRV type 2): 0.003 µg/mL (≈ 0.00812 µM); Activity on Rhinovirus Type 1A MTC [7]: >10.00
Cc1cc(CCCOc2c(C)cc(-c3noc(C(F)(F)F)n3)cc2C)on1 [Pleconaril, reference compound]	–	–	–	–	–	–	EC50 (Rhinovirus Type 14; HRV14, read-out: Activity on Rhinovirus Type 14 EC50): 0.0608 µg/mL (≈ 0.159 µM); CC50 (in vitro [8]): > 0.1 µg/mL
NC(=O)c1ncn([C@@H]2O[C@H](CO)[C@@H](O)[C@H]2O)n1 [Ribavirin]	–	–	–	51.03	98.3	–	EC50 (Enterovirus 70): > 100 µg/mL; CC50 (in vitro [1]; [10]): > 100 µg/mL; CC50 (in vitro [2]; [10]): > 100 µg/mL; EC50 (Coxsackie A21): > 100 µg/mL; EC50 (HRV type 1A): 1.93 µg/mL (≈ 7.9 µM)
